# Patent US9650497B2, “Phosphonamidates-synthesis and flame retardant applications” (EMPA EIDGENOSSISCHE MATERIALPRUFUNGS- UND FORSCHUNGSANSTALT, priority 2011, dated 2017)
# Read-outs that look alike come from different tables or passages of the source.
# Columns and labels:
# [1] = TGA thermal decomposition of DOPO and amino DOPO derivatives; type: physicochemical; details: for TdMax: Temperature for maximum decomposition rate: several values = multiple decomposition stages
# Method: One of the important objectives of developing various amino derivatives of DOPO was to improve the thermal stability of DOPO itself. This will ensure their suitability to be used in thermoplastic polymers which require usually high processing temperatures (200-350° C.).
# [2] = UL-94 HB test (ASTM D4986 or ISO/DIS 9772.3, horizontal); details: for flame retardancy effect compared to unmodified DOPO: Table 6; for UL 94 HB test rating (Horizontal): OH terminated prepolymer foam
# [3] = BKZ flammability test (Swiss standard, vertical burning)
# Method: The synthesized compounds were evaluated for flame retardant properties by incorporating them in flexible PU foams.
# The flexible polyurethane foams were manufactured according to the recipe mentioned in Table 3 below.
# The manufacture of the foams according to the formulations in Table 3 was done by handmix in the laboratory based on 200 gms polyol. The formulation of the components taking part in the reaction was identical in all cases except for the addition of Flame retardants where indicated.
# The resulting foams were dried and aged for 3 h at 80° C. The foams were then tested for their flammability according to Swiss flammability standard (BKZ). It's a vertical burning test for foamed materials with a specific sample size (length: 160 mm, width: 60 mm, thickness: 6 mm±10% tolerance). For each specimen flame test (BKZ) was performed in triplicate. If the results were not consistent, each specimen was tested 6 times. For the BKZ test an air dried specimen was placed in a vertical position and subjected to flame from the lower front edge by a standardized flame. The flame height of 20 mm was maintained and should burn constantly with sharp outlines. The burner position was adjusted 45° so that the flame hits the specimen vertically in the middle of the lower front edge. The flame is brought in contact with the foam for 15 sec and should be placed such that the foam bottom is approximately 4±1 mm inside the flame from the tip.
# [4] = Small Burner test, DIN 4102-1 class B2, edge application of flame; details: spray foam
# Method: The Small Burner test equipment employed within this patent is in accordance to the requirements for the tests of the building materials class B2 specified in DIN 4102-1.
# All flame tests done within this report are based on edge application of the impinging flame.
# The B2-burner tests were carried out approx. one week after foaming.
# [5] = Water solubility of DOPO compounds; type: physicochemical; details: for water solubility in words: up to 90° C.; for solubility: water
# Excerpt: These DOPO-derivatives are very barely soluble in water as it is exemplarily shown for EDAB-DOPO and TEPA-PDOPO in table 2.
# [6] = 5% FR in flexible PU foam (Table 3 recipe, handmix)
# [7] = 25° C., read-out: solubilitiy FR in water mg/L
# [8] = 25° C., read-out: solubilitiy FR in water mmol/L
# [9] = 90° C., read-out: solubilitiy FR in water mg/L
# [10] = 90° C., read-out: solubilitiy FR in water mmol/L
SMILES,Td1: Temperature for 10% weight loss [1] [°C],% Char at 800° C. [1] [%],TdMax: Temperature for maximum decomposition rate [1],Burning Rate ([2]; 5% FR in flexible PU foam) [mm/min],UL-94 HB Rating ([2]; 5% FR in flexible PU foam),"BKZ Classification [3, 6]",also measured
"O=[PH]1Oc2ccccc2-c2ccccc21 (centres unmarked) [DOPO, 9,10-dihydro-9-oxa-phosphaphenanthrene-10-oxide, reference compound]",201,2,267 °C,48,HBF,Class 5 (flame does not reach the top level of the sample holder (150 mm). duration ≦ 20 s),temperature at which decomposition starts [1]: < 200 °C
O=P1(NCCNP2(=O)Oc3ccccc3-c3ccccc32)Oc2ccccc2-c2ccccc21 (centres unmarked) [EDAB-DOPO],355,7,415 °C,25,HF-1,Class 5 (flame does not reach the top level of the sample holder (150 mm). duration ≦ 20 s),"effect of doubling the amount of FR on flame height and extinguishing of the flame [4]: no significant effect; flame retardancy effect compared to unmodified DOPO ([2]; 5% FR in flexible PU foam): better flame retardancy effect as compared to unmodified DOPO; flammability performance versus TCPP ([3]; polyether foam, lower density, 2.8 pphp water, columns 3 and 5): works better at least in vertical tests; effect on flammability versus foam without FR ([3]; polyether foam, water 1.6 pphp, columns 4 and 1): positive effect on flammability; flammability performance versus TCPP ([3]; polyether foam, water 1.6 pphp, columns 4 and 2): works at least as well than TCPP; water solubility in words [5]: only very small amounts; solubility [5, 7]: 393 mg/L; solubility [5, 8]: 0.8 mmol/L; solubility [5, 9]: 501 mg/L; solubility [5, 10]: 1.03 mmol/L"
C=CCNP1(=O)Oc2ccccc2-c2ccccc21 (centres unmarked) [AA-DOPO],247,3,295 °C,47,HF-2,Class 5 (flame does not reach the top level of the sample holder (150 mm). duration ≦ 20 s),flame retardancy effect compared to unmodified DOPO ([2]; 5% FR in flexible PU foam): better flame retardancy effect as compared to unmodified DOPO
O=P1(N2CCN(P3(=O)Oc4ccccc4-c4ccccc43)CC2)Oc2ccccc2-c2ccccc21 (centres unmarked) [PB-DOPO],387,5,433 °C,57,HBF,Class 5 (flame does not reach the top level of the sample holder (150 mm). duration ≦ 20 s),–
O=P1(NCCOP2(=O)Oc3ccccc3-c3ccccc32)Oc2ccccc2-c2ccccc21 (centres unmarked) [EAB-DOPO],311,2,387 °C,–,–,–,–
CCO[Si](CCCNP1(=O)Oc2ccccc2-c2ccccc21)(OCC)OCC (centres unmarked) [TESPA-DOPO],234,28,135/287/437,–,–,–,–
"CC(CCl)OP(=O)(OC(C)CCl)OC(C)CCl (centres unmarked) [TCPP, Tris(2-chlorisopropyl)phosphate, reference compound]",–,–,–,–,–,–,"Burning Rate [2]: 23 mm/min; UL-94 HB Rating [2]: HBF; BKZ Classification [3]: Class 5 (key: Class 3: time 5-20 s; Class 4: time, duration of burning > 20 s; Class 5: flame does not reach the top level of the sample holder (150 mm). duration ≦ 20 s)"
"O=P1(NCCN(CCN(CCN(CCNP2(=O)Oc3ccccc3-c3ccccc32)P2(=O)Oc3ccccc3-c3ccccc32)P2(=O)Oc3ccccc3-c3ccccc32)P2(=O)Oc3ccccc3-c3ccccc32)Oc2ccccc2-c2ccccc21 (centres unmarked) [TEPA-PDOPO, tetraethylenepentaamine DOPO]",–,–,–,–,HF-1,Class 5 (flame does not reach the top level of the sample holder (150 mm). duration ≦ 20 s),"effect of doubling the amount of FR on flame height and extinguishing of the flame [4]: no significant effect; UL 94 HB test rating (Horizontal) ([2]; 5 pphp FR): HF2; UL 94 HB test rating (Horizontal) ([2]; 10 pphp FR): HF1; BKZ Class (Vertical) ([3]; 10 pphp FR, OH terminated prepolymer foam): 5; effect of more FR on flammability behavior ([3]; OH terminated prepolymer foam, 5 vs 10 pphp, horizontal and vertical tests): improves flammability behavior in both horizontal and vertical tests; water solubility in words [5]: only very small amounts; solubility [5, 7]: 15.4 mg/L; solubility [5, 8]: 0.01 mmol/L; solubility [5, 9]: 818 mg/L; solubility [5, 10]: 0.65 mmol/L"
O=P1(NCCN(CCNP2(=O)Oc3ccccc3-c3ccccc32)P2(=O)Oc3ccccc3-c3ccccc32)Oc2ccccc2-c2ccccc21 (centres unmarked) [TDETA-DOPO],294,2,385 °C,–,HF-1,Class 5 (flame does not reach the top level of the sample holder (150 mm). duration ≦ 20 s),–
